{
  "source": "patent US10913744B2",
  "about": "“LRRK2 inhibitors and methods of making and using the same” (Dana-Farber Cancer Institute, Inc., priority 2015, dated 2021)",
  "key": {"[1]": {"target": "SIK3 (Homo sapiens (Human), UniProt Q9Y2K2)", "assay": "Dundee profiling"}, "[2]": {"target": "BTK (Homo sapiens (Human), UniProt Q06187)", "assay": "Dundee profiling"}, "[3]": {"target": "MST2 (Homo sapiens (Human), UniProt Q13188)", "assay": "Dundee profiling"}, "[4]": {"tested_on": "panel of 451 kinases", "assay": "KinomeScan panel selectivity", "assay_type": "binding", "details": "1 μM", "description": "(§1) The kinase selectivity of Compound 18 was further evaluated by KinomeScan."}, "[5]": {"target": "BRSK1 (Homo sapiens (Human), UniProt Q8TDC3)", "assay": "Dundee profiling"}, "[6]": {"target": "MKK7 (Homo sapiens (Human), UniProt O14733)", "assay": "KinomeScan", "assay_type": "binding", "details": "1 uM"}, "[7]": {"target": "CDC2L5 (Homo sapiens (Human), UniProt Q14004)", "assay": "KinomeScan", "assay_type": "binding", "details": "1 uM", "description": "as §1"}, "[8]": {"target": "SmMLCK (Homo sapiens (Human), UniProt Q15746)", "assay": "Dundee profiling"}, "[9]": {"target": "EGFR (G719S) (Homo sapiens (Human), UniProt P00533, G719S)", "assay": "KinomeScan", "assay_type": "binding", "details": "1 uM"}, "[10]": {"target": "ULK1 (Homo sapiens (Human), UniProt O75385)", "assay": "Dundee profiling"}, "[11]": {"target": "Aurora A (Homo sapiens (Human), UniProt O14965)", "assay": "Dundee profiling"}, "[12]": {"target": "MET (Y1235D) (Homo sapiens (Human), UniProt P08581, Y1235D)", "assay": "KinomeScan", "assay_type": "binding", "details": "1 uM"}, "[13]": {"target": "PLK1 (Homo sapiens (Human), UniProt P53350)", "assay": "Dundee profiling"}, "[14]": {"target": "MARK3 (Homo sapiens (Human), UniProt P27448)", "sequence (P27448 whole entry, species assumed)": "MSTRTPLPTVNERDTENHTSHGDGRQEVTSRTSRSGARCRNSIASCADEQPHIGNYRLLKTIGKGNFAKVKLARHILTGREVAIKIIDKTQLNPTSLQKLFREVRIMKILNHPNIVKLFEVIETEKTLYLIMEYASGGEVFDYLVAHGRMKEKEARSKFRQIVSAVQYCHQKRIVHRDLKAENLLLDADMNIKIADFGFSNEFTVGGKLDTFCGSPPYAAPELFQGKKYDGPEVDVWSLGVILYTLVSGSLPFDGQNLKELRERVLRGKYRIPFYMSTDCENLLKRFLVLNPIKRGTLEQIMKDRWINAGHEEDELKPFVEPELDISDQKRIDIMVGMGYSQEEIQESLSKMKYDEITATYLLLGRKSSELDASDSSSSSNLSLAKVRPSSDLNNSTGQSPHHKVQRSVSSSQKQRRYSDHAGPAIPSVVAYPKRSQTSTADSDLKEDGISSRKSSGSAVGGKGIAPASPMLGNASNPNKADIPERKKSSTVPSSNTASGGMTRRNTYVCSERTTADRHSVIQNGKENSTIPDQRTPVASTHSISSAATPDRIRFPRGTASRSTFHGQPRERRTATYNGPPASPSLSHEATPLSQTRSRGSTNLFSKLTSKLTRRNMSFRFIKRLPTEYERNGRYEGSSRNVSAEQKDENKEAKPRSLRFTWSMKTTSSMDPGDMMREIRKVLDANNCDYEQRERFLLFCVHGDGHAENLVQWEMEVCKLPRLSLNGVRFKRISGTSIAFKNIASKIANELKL", "assay": "Dundee profiling"}, "[15]": {"target": "HIPK1 (Homo sapiens (Human), UniProt Q86Z02)", "sequence (Q86Z02 whole entry, looked up, species assumed)": "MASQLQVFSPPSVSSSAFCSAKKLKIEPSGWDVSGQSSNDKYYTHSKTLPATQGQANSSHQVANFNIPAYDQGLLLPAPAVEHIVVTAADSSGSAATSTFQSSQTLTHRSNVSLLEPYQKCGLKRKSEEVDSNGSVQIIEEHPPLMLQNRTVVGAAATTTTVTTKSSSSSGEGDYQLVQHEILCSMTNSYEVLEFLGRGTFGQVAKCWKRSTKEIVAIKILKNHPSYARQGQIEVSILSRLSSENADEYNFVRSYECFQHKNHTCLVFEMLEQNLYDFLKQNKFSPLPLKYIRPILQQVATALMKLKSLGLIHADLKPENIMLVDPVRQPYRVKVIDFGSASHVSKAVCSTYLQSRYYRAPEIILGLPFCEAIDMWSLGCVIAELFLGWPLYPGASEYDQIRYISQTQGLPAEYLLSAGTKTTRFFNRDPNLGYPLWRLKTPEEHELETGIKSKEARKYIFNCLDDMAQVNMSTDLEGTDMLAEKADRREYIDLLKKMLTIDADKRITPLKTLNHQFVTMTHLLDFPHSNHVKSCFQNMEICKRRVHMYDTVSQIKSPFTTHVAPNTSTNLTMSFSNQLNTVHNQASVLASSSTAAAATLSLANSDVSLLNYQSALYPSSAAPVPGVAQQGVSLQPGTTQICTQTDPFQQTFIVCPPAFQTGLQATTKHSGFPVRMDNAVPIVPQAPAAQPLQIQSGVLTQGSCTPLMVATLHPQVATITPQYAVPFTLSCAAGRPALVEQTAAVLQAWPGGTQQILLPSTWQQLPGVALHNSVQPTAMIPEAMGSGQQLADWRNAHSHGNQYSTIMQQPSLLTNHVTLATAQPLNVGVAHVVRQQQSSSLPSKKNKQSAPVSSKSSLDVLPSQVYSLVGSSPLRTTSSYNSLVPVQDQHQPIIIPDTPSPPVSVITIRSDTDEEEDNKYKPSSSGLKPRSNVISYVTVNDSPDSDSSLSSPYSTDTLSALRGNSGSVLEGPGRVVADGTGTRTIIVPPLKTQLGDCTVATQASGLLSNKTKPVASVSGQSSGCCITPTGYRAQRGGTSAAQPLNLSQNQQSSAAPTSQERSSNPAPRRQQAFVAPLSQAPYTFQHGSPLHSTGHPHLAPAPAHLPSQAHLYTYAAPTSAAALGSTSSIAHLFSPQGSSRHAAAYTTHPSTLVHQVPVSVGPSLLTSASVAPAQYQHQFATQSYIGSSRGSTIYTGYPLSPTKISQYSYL", "assay": "Dundee profiling"}, "[16]": {"target": "TLK1 (Homo sapiens (Human), UniProt Q9UKI8)", "assay": "Dundee profiling"}, "[17]": {"target": "p38d MAPK (Homo sapiens (Human), UniProt O15264)", "assay": "Dundee profiling"}, "[18]": {"target": "MEKK1 (Homo sapiens (Human), UniProt Q13233)", "assay": "Dundee profiling"}, "[19]": {"target": "p38-alpha (Homo sapiens (Human), UniProt Q16539)", "assay": "KinomeScan", "assay_type": "binding", "details": "1 uM"}, "[20]": {"target": "IGF-1R (Homo sapiens (Human), UniProt P08069)", "assay": "Dundee profiling"}, "[21]": {"tested_on": "AMPK (hum)", "assay": "Dundee profiling"}, "[22]": {"target": "S6K1 (Homo sapiens (Human), UniProt P23443)", "assay": "Dundee profiling"}, "[23]": {"target": "GCK (Homo sapiens (Human), UniProt Q12851)", "sequence (Q12851 whole entry)": "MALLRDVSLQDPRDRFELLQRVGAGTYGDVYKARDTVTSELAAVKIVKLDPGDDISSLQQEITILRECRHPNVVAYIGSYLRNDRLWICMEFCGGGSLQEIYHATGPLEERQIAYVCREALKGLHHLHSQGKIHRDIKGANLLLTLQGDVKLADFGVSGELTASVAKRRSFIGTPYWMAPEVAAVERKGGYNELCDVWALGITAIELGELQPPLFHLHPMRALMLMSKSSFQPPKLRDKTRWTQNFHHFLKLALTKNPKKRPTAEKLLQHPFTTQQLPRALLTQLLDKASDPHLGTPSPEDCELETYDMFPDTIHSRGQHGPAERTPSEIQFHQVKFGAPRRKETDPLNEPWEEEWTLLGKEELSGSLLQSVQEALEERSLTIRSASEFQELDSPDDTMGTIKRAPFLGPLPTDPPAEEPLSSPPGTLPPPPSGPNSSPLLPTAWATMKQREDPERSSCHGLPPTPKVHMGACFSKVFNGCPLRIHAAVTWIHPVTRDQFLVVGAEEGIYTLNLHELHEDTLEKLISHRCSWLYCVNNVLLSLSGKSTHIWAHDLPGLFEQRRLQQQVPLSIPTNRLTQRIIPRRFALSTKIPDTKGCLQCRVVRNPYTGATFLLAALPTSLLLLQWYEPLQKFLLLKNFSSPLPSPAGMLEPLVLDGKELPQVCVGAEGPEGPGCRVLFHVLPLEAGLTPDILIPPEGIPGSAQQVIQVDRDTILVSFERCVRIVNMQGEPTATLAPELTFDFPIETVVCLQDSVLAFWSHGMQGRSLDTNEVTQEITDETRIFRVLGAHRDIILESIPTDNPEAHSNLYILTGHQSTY", "assay": "Dundee profiling"}, "[24]": {"target": "PIP5K1C (Homo sapiens (Human), UniProt O60331)", "assay": "KinomeScan", "assay_type": "binding", "details": "1 uM"}, "[25]": {"target": "MSK1 (Homo sapiens (Human), UniProt O75582)", "sequence (O75582 whole entry, species assumed)": "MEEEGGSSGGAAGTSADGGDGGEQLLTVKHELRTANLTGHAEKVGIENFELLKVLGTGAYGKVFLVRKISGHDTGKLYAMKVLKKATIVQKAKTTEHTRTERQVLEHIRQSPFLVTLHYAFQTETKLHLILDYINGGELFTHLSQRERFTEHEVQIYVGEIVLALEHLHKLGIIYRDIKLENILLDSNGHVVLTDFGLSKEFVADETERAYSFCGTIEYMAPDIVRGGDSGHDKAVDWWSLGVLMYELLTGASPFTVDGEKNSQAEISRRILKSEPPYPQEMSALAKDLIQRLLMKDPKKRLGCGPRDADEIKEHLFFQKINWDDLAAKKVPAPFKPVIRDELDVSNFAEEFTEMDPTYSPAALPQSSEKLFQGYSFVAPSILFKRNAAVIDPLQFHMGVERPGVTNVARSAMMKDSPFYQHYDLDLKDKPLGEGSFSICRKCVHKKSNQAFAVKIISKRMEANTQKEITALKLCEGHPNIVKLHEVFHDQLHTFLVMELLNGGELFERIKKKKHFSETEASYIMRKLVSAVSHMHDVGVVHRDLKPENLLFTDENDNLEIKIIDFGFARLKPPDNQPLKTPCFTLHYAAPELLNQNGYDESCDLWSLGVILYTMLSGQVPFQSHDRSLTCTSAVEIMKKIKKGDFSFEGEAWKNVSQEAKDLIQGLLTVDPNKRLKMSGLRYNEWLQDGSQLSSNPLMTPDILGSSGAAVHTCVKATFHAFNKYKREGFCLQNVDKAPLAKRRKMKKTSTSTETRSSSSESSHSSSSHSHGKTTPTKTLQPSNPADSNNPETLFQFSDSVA", "assay": "Dundee profiling"}, "[26]": {"target": "ERK1 (Homo sapiens (Human), UniProt P27361)", "assay": "Dundee profiling"}, "[27]": {"target": "MET (M1250T) (Homo sapiens (Human), UniProt P08581, M1250T)", "assay": "KinomeScan", "assay_type": "binding", "details": "1 uM"}, "[28]": {"target": "ABL (Homo sapiens (Human), UniProt P00519)", "assay": "Dundee profiling"}, "[29]": {"target": "EPH-B1 (Homo sapiens (Human), UniProt P54762)", "sequence (P54762 18-984, species assumed)": "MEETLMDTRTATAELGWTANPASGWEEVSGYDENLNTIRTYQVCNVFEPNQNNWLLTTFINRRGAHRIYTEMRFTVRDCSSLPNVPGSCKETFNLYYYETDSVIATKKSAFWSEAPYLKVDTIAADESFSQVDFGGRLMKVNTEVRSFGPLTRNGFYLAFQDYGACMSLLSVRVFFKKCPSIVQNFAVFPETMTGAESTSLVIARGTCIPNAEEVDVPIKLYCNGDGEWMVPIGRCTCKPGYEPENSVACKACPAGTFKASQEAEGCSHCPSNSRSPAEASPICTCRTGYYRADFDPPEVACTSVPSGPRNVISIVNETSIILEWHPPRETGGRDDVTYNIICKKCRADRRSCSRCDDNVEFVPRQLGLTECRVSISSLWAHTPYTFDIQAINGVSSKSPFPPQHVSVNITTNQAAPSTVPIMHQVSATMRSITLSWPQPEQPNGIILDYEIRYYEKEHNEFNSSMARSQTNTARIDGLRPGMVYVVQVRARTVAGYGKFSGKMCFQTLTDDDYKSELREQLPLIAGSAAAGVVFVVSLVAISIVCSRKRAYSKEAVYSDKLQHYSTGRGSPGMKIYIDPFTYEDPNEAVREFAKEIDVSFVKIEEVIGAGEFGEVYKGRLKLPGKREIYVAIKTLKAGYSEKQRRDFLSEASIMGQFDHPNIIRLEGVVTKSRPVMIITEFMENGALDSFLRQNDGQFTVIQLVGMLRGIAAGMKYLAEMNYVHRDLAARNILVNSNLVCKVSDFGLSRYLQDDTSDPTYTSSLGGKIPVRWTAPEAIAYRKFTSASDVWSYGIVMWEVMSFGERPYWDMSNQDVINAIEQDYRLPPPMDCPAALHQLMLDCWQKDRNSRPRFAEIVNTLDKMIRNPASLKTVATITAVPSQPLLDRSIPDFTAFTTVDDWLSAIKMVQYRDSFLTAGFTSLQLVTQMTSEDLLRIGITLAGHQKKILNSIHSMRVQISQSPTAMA", "assay": "Dundee profiling"}, "[30]": {"target": "HIPK3 (Homo sapiens (Human), UniProt Q9H422)", "assay": "Dundee profiling"}, "[31]": {"target": "wild type LRRK2 (Homo sapiens (Human), UniProt Q5S007)", "assay": "LRRK2 enzyme kinase assay, wild type", "assay_type": "biochemical", "details": "Table 1; ATP at Km 36 μm; read-out: Enzyme IC50 wt"}, "[32]": {"target": "MELK (Homo sapiens (Human), UniProt Q14680)", "assay": "Dundee profiling"}, "[33]": {"target": "Src (Homo sapiens (Human), UniProt P12931)", "sequence (P12931 whole entry, looked up, species assumed)": "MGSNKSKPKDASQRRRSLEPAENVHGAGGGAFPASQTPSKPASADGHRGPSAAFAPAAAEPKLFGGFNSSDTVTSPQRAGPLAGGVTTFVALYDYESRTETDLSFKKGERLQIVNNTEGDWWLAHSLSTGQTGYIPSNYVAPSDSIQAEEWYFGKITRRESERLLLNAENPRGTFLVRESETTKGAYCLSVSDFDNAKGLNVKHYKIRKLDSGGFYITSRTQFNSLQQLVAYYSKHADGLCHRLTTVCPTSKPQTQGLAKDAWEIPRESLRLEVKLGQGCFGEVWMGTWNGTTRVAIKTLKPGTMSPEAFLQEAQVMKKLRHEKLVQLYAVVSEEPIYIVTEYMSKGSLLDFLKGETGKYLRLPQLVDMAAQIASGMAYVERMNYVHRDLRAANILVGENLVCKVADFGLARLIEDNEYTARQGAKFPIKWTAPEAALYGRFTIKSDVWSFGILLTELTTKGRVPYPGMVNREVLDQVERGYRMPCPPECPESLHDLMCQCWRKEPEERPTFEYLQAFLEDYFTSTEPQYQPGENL", "assay": "Dundee profiling"}, "[34]": {"details": "read-out: percent remaining enzymatic activity"}, "[35]": {"details": "read-out: percent remaining enzymatic activity, I1, 1 μM"}, "[36]": {"details": "read-out: percent remaining enzymatic activity, I10"}},
  "note": "Where two headings read alike, the source gives them in different places.",
  "data": [
    {"smiles": "CNc1nc(Nc2ccc(C(=O)N3CCOCC3)cc2OC)nc2[nH]cc(Cl)c12", "note": "[Compound 18, (4-((5-chloro-4-(methylamino)-7H-pyrrolo[2,3-d]pyrimidin-2-yl)amino)-3-methoxyphenyl)(morpholino)methanone]", "values": [
      {"measurement": "percent remaining enzymatic activity", "setting": "[1]; I10", "result": 96, "unit": "%"},
      {"measurement": "remaining activity at 1 µM", "setting": "[1]; [34]", "result": 107, "unit": "%"},
      {"measurement": "percent remaining enzymatic activity", "setting": "[2]; I10", "result": 126, "unit": "%"},
      {"measurement": "remaining activity at 1 µM", "setting": "[2]; [34]", "result": 116, "unit": "%"},
      {"measurement": "remaining activity at 1 µM", "setting": "[3]; [35]", "result": 90, "unit": "%"},
      {"measurement": "remaining activity at 1 µM", "setting": "[3]; [36]", "result": 82, "unit": "%"},
      {"measurement": "kinase selectivity, interactions detected", "setting": "[4]", "result": "no interactions detected with kinases other than LRRK2[G2019S] with the exception of TTK and RPS6KA4"},
      {"measurement": "remaining activity at 1 µM", "setting": "[5]; [35]", "result": 94, "unit": "%"},
      {"measurement": "remaining activity at 1 µM", "setting": "[5]; [36]", "result": 98, "unit": "%"},
      {"measurement": "KinomeScan value", "setting": "[6]", "result": 100},
      {"measurement": "KinomeScan value", "setting": "[7]", "result": 100},
      {"measurement": "IC50", "setting": "[8]", "result": 81.3, "unit": "nM"},
      {"measurement": "inhibition at 1 µM", "setting": "[8]; read-out: inhibition of kinase activity of the DMSO control", "result": "> 90", "unit": "%"},
      {"measurement": "remaining activity at 1 µM", "setting": "[8]; [35]", "result": 9, "unit": "%"},
      {"measurement": "remaining activity at 1 µM", "setting": "[8]; [36]", "result": 1, "unit": "%"},
      {"measurement": "KinomeScan value", "setting": "[9]", "result": 88},
      {"measurement": "percent remaining enzymatic activity", "setting": "[10]; I10", "result": 95, "unit": "%"},
      {"measurement": "remaining activity at 1 µM", "setting": "[10]; [34]", "result": 103, "unit": "%"},
      {"measurement": "remaining activity at 1 µM", "setting": "[11]; [35]", "result": 124, "unit": "%"},
      {"measurement": "remaining activity at 1 µM", "setting": "[11]; [36]", "result": 112, "unit": "%"},
      {"measurement": "KinomeScan value", "setting": "[12]", "result": 100},
      {"measurement": "remaining activity at 1 µM", "setting": "[13]; [35]", "result": 62, "unit": "%"},
      {"measurement": "remaining activity at 1 µM", "setting": "[13]; [36]", "result": 13, "unit": "%"},
      {"measurement": "remaining activity at 1 µM", "setting": "[14]; [35]", "result": 120, "unit": "%"},
      {"measurement": "remaining activity at 1 µM", "setting": "[14]; [36]", "result": 92, "unit": "%"},
      {"measurement": "remaining activity at 1 µM", "setting": "[15]; [35]", "result": 95, "unit": "%"},
      {"measurement": "remaining activity at 1 µM", "setting": "[15]; [36]", "result": 44, "unit": "%"},
      {"measurement": "remaining activity at 1 µM", "setting": "[16]; [35]", "result": 106, "unit": "%"},
      {"measurement": "remaining activity at 1 µM", "setting": "[16]; [36]", "result": 105, "unit": "%"},
      {"measurement": "remaining activity at 1 µM", "setting": "[17]; [35]", "result": 107, "unit": "%"},
      {"measurement": "remaining activity at 1 µM", "setting": "[17]; [36]", "result": 102, "unit": "%"},
      {"measurement": "remaining activity at 1 µM", "setting": "[18]; [35]", "result": 94, "unit": "%"},
      {"measurement": "remaining activity at 1 µM", "setting": "[18]; [36]", "result": 85, "unit": "%"},
      {"measurement": "KinomeScan value", "setting": "[19]", "result": 96},
      {"measurement": "remaining activity at 1 µM", "setting": "[20]; [35]", "result": 13, "unit": "%"},
      {"measurement": "remaining activity at 1 µM", "setting": "[20]; [36]", "result": 9, "unit": "%"},
      {"measurement": "percent remaining enzymatic activity", "setting": "[21]; I1, 1 μM", "result": 104, "unit": "%"},
      {"measurement": "percent remaining enzymatic activity", "setting": "[21]; I10", "result": 92, "unit": "%"},
      {"measurement": "remaining activity at 1 µM", "setting": "[22]; [35]", "result": 106, "unit": "%"},
      {"measurement": "remaining activity at 1 µM", "setting": "[22]; [36]", "result": 102, "unit": "%"},
      {"measurement": "remaining activity at 1 µM", "setting": "[23]; [35]", "result": 86, "unit": "%"},
      {"measurement": "remaining activity at 1 µM", "setting": "[23]; [36]", "result": 41, "unit": "%"},
      {"measurement": "KinomeScan value", "setting": "[24]", "result": 100},
      {"measurement": "remaining activity at 1 µM", "setting": "[25]; [35]", "result": 109, "unit": "%"},
      {"measurement": "remaining activity at 1 µM", "setting": "[25]; [36]", "result": 99, "unit": "%"},
      {"measurement": "remaining activity at 1 µM", "setting": "[26]; [35]", "result": 107, "unit": "%"},
      {"measurement": "remaining activity at 1 µM", "setting": "[26]; [36]", "result": 68, "unit": "%"},
      {"measurement": "KinomeScan value", "setting": "[27]", "result": 80},
      {"measurement": "remaining activity at 1 µM", "setting": "[28]; [35]", "result": 106, "unit": "%"},
      {"measurement": "remaining activity at 1 µM", "setting": "[28]; [36]", "result": 103, "unit": "%"},
      {"measurement": "remaining activity at 1 µM", "setting": "[29]; [35]", "result": 119, "unit": "%"},
      {"measurement": "remaining activity at 1 µM", "setting": "[29]; [36]", "result": 126, "unit": "%"},
      {"measurement": "remaining activity at 1 µM", "setting": "[30]; [35]", "result": 106, "unit": "%"},
      {"measurement": "remaining activity at 1 µM", "setting": "[30]; [36]", "result": 93, "unit": "%"},
      {"measurement": "IC50", "setting": "[31]", "result": 6.5, "unit": "nM"},
      {"measurement": "remaining activity at 1 µM", "setting": "[32]; [35]", "result": 118, "unit": "%"},
      {"measurement": "remaining activity at 1 µM", "setting": "[32]; [36]", "result": 79, "unit": "%"},
      {"measurement": "remaining activity at 1 µM", "setting": "[33]; [35]", "result": 110, "unit": "%"},
      {"measurement": "remaining activity at 1 µM", "setting": "[33]; [36]", "result": 102, "unit": "%"}
    ]}
  ]
}
